Reference: article PMC10261210 (Cancer Chemotherapy and Pharmacology, 2023)

Key:
[1] = tested on: patients with relapsed or refractory advanced solid tumors; test: phase 1 safety: adverse events (CTCAE v4.03), safety population; type: in vivo, human; conditions: for Fatal serious adverse event, MedDRA preferred term: patient
Description: Treatment was to be continued until disease progression, unacceptable toxicity, or the patient discontinued for any other reason, for a maximum duration of 12 months. Treatment could be continued beyond 12 months if it was determined that a patient would derive benefit from such continued therapy.
(§1) Adverse events were coded using the Medical Dictionary for Regulatory Activities (MedDRA) Version 19.0 and were graded according to the National Cancer Institute (NCI) Common Terminology Criteria (CTC) for adverse events (CTCAE) (Version 4.03). The assessment period for treatment emergent adverse events (TEAEs) was from the first dose of study treatment to 30 days after the last dose of study medication, or until the start of subsequent antineoplastic therapy, whichever occurred first. Following baseline evaluation, response was assessed by investigators every two cycles by computed tomography or magnetic resonance imaging according to Response Evaluation Criteria in Solid Tumors (version 1.1).
(§2) The safety population was defined as all patients who received any amount of tovorafenib. The DLT-evaluable population was defined as all patients in the dose escalation phase of the study who either experienced DLT during cycle 1 or who completed at least 75% of the planned doses and had sufficient follow-up data to allow the investigators and sponsor to determine whether DLT had occurred. […] The PK-evaluable population included all patients who had sufficient dosing data and concentration–time data to permit calculation of PK parameters.

[2] = tested on: relapsed or refractory advanced solid tumors, melanoma; test: response by investigator assessment (RECIST 1.1); type: in vivo, human
Description: as §1, §2

pERK = pERK expression in paired tumor biopsies (H-score, image analysis); type: in vivo, human; conditions: for median percentage decrease in pERK staining, day 21 vs baseline: Q2D expansion; for median percentage decrease in pERK expression, day 21 vs baseline: QW melanoma expansion cohort
Description: Based on tissue availability, pharmacodynamic assays included assessment of pERK expression levels in paired biopsy samples (baseline and day 21) from patients in the melanoma dose expansion cohorts. The level of staining was assessed both by a pathologist (semi-quantitative measurements according to H-score assessment) and by quantitated image analysis (Aperio, Leica Biosystems Nussloch, Germany).

wild-type BRAF = tested on: wild-type BRAF; parameters: method as in doi:10.1016/S1359-6349(10)71810-3; conditions: preclinical studies; cited from earlier work
[3] = tested on: relapsed or refractory advanced solid tumors, melanoma; parameters: method as in ref 25 = [25]; 25. Medina T Barry E Govinda Raju S Blackman S Gonzalez R Prolonged complete response to the pan-RAF inhibitor DAY101 in a patient with an NRAS -mutated acral lentiginous melanoma Pigment Cell Melanom; conditions: one patient, NRAS-mutated melanoma, cited from earlier work
[4] = dose expansion Cohort 1, BRAF+ Naïve, Q2D n = 16
[5] = dose expansion Cohort 2, BRAF+ Previously treated, Q2D n = 6
[6] = dose expansion Cohort 3, NRAS+ Naïve, Q2D n = 14
[7] = dose expansion Cohort 4, NRAS + Previously treated, Q2D n = 1
[8] = dose expansion Cohort 5, BRAF/NRAS WT Naïve, Q2D n = 6
[9] = dose expansion Cohort 6, BRAF/NRAS WT Previously, Q2D n = 9
[10] = dose expansion Cohort 9, NRAS+ Naïve, QW n = 17
[11] = dose expansion, Q2D n=68 (melanoma cohorts, PK cohort, unknown)

C[C@@H](NC(=O)c1ncnc(N)c1Cl)c1ncc(C(=O)Nc2cc(C(F)(F)F)c(Cl)cn2)s1 [tovorafenib]
Fatal serious adverse event, MedDRA preferred term ([1]; dose escalation, 20 mg Q2D, study day of death 23, Not related): Respiratory failure
Fatal serious adverse event, MedDRA preferred term ([1]; dose escalation, 80 mg Q2D, study day of death 44, Not related): Colon cancer
Fatal serious adverse event, MedDRA preferred term ([1]; dose escalation, 280 mg Q2D, study day of death 28, Related): Respiratory failure
Fatal serious adverse event, MedDRA preferred term ([1]; dose escalation, 600 mg QW, study day of death 9, Not related): Colon cancer metastatic
Fatal serious adverse event, MedDRA preferred term ([1]; dose escalation, 600 mg QW, study day of death 28, Not related): Pancreatic carcinoma
Fatal serious adverse event, MedDRA preferred term ([1]; dose escalation, 800 mg QW, study day of death 31, Not related): Cardio-respiratory arrest
on-study deaths ([1]; dose expansion phase (7%)): 7 patients
Fatal serious adverse event, MedDRA preferred term ([1]; dose expansion, Q2D, study day of death 16, Not related): Small intestinal obstruction
Fatal serious adverse event, MedDRA preferred term ([1]; dose expansion, Q2D, study day of death 26, Not related): Sepsis
Fatal serious adverse event, MedDRA preferred term ([1]; dose expansion, Q2D, study day of death 43, Not related): Pneumonia
Fatal serious adverse event, MedDRA preferred term ([1]; dose expansion, Q2D, study day of death 61, Not related): Metastatic malignant melanoma
Fatal serious adverse event, MedDRA preferred term ([1]; dose expansion, Q2D, study day of death 67, Not related): Malignant melanoma
Fatal serious adverse event, MedDRA preferred term ([1]; dose expansion, Q2D, study day of death 81, Not related): Metastatic malignant melanoma
drug-related TEAE fatigue ([1]; human, in vivo): 42%
drug-related TEAE maculo-papular rash ([1]; human, in vivo): 36%
drug-related grade 3 or higher anemia ([1]; human, in vivo): 8%
drug-related grade 3 or higher hyperbilirubinemia ([1]; human, in vivo): 10%
drug-related grade 3 or higher maculo-papular rash ([1]; human, in vivo): 9%
generalized rash leading to dose reduction ([1]; human, in vivo): 3%
grade 3 or higher anemia ([1]; human, in vivo): 14%
grade 3 or higher maculo-papular rash ([1]; human, in vivo): 8%
maculo-papular rash leading to dose reduction ([1]; human, in vivo): 5%
maculo-papular rash resulting in permanent discontinuation ([1]; human, in vivo): 3%
sepsis resulting in permanent discontinuation ([1]; human, in vivo): 3%
squamous cell carcinoma of skin reported as TEAE ([1]; human, in vivo): < 1%
on-study deaths deemed treatment related ([1]; respiratory failure, 280 mg Q2D dose escalation cohort): one
on-study deaths ([1]; whole study, 149 patients): 13
median PFS ([2]; BRAF mutation-positive, RAF and MEK inhibitor-naïve cohort, 95% CI 1.9–14.3): 5.7 months
sustained PFS in an individual patient ([2]; BRAF mutation-positive, RAF and MEK inhibitor-naïve cohort, in response and on treatment at data cutoff): 45 months
duration of stable disease in one patient ([2]; NRAS-mutated melanoma, cohort 7): 42 months
best response of stable disease ([2]; Q2D dose escalation, 5 of 22 evaluable patients): 23%
responses ([2]; Q2D dose escalation, 22 evaluable patients): no responses
Objective response rate ([2]; Q2D expansion phase, 10 of 68 evaluable patients, 95% CI 7–25): 15%
median duration of response ([2]; Q2D expansion, 68 evaluable patients): 6.0 months
median progression-free survival (PFS) ([2]; Q2D expansion, 68 evaluable patients, 95% CI 1.8–3.6): 1.9 months
partial responses ([2]; QW dose escalation, 2 in 14 evaluable patients (endometrial cancer 600 mg, thyroid cancer 800 mg)): 14%
best response of stable disease ([2]; QW dose expansion, 9 of 17 evaluable patients): 53%
responses ([2]; QW dose expansion, 17 evaluable patients, NRAS mutation-positive melanoma naïve to RAF and MEK inhibitors): no responses
responses (partial) ([2]; cohort 1, BRAF mutation-positive melanoma, RAF and MEK inhibitor-naïve, Q2D, 8 of 16): 50%
responses ([2]; cohort 2, BRAF mutation-positive, RAF and MEK inhibitor-previously treated, Q2D, 1 of 6): 17%
responses ([2]; cohort 3, NRAS mutation-positive, RAF and MEK inhibitor-naïve, Q2D, 1 of 14): 7%
Best overall response: Complete response ([2]; dose escalation, Q2D n = 22): 0 n (%)
Best overall response: Partial response ([2]; dose escalation, Q2D n = 22): 0 n (%)
Best overall response: Progressive disease ([2]; dose escalation, Q2D n = 22): 17 (77) n (%)
Best overall response: Stable disease ([2]; dose escalation, Q2D n = 22): 5 (23) n (%)
Objective response rate ([2]; dose escalation, Q2D n = 22): 0 n (%)
Best overall response: Complete response ([2]; dose escalation, QW n = 14): 0 n (%)
Best overall response: Partial response ([2]; dose escalation, QW n = 14): 2 (14) n (%)
Best overall response: Progressive disease ([2]; dose escalation, QW n = 14): 8 (57) n (%)
Best overall response: Stable disease ([2]; dose escalation, QW n = 14): 4 (29) n (%)
Objective response rate ([2]; dose escalation, QW n = 14): 2 (14) n (%)
Best overall response: Complete response ([2]; dose escalation, Total n=36): 0 n (%)
Best overall response: Partial response ([2]; dose escalation, Total n=36): 2 (6) n (%)
Best overall response: Progressive disease ([2]; dose escalation, Total n=36): 25 (69) n (%)
Best overall response: Stable disease ([2]; dose escalation, Total n=36): 9 (25) n (%)
Objective response rate ([2]; dose escalation, Total n=36): 2 (6) n (%)
Best overall response: Complete response [2, 4]: 0 n (%)
Best overall response: Partial response [2, 4]: 8 (50) n (%)
Best overall response: Progressive disease [2, 4]: 6 (38) n (%)
Best overall response: Stable disease [2, 4]: 2 (13) n (%)
Objective response rate [2, 4]: 8 (50) n (%)
Best overall response: Complete response [2, 5]: 0 n (%)
Best overall response: Partial response [2, 5]: 1 (17) n (%)
Best overall response: Progressive disease [2, 5]: 2 (33) n (%)
Best overall response: Stable disease [2, 5]: 3 (50) n (%)
Objective response rate [2, 5]: 1 (17) n (%)
Best overall response: Complete response [2, 6]: 0 n (%)
Best overall response: Partial response [2, 6]: 1 (7) n (%)
Best overall response: Progressive disease [2, 6]: 9 (64) n (%)
Best overall response: Stable disease [2, 6]: 4 (29) n (%)
Objective response rate [2, 6]: 1 (7) n (%)
Best overall response: Complete response [2, 7]: 0 n (%)
Best overall response: Partial response [2, 7]: 0 n (%)
Best overall response: Progressive disease [2, 7]: 1 (100) n (%)
Best overall response: Stable disease [2, 7]: 0 n (%)
Objective response rate [2, 7]: 0 n (%)
Best overall response: Complete response [2, 8]: 0 n (%)
Best overall response: Partial response [2, 8]: 0 n (%)
Best overall response: Progressive disease [2, 8]: 5 (83) n (%)
Best overall response: Stable disease [2, 8]: 1 (17) n (%)
Objective response rate [2, 8]: 0 n (%)
Best overall response: Complete response [2, 9]: 0 n (%)
Best overall response: Partial response [2, 9]: 0 n (%)
Best overall response: Progressive disease [2, 9]: 6 (67) n (%)
Best overall response: Stable disease [2, 9]: 3 (33) n (%)
Objective response rate [2, 9]: 0 n (%)
Best overall response: Complete response [2, 10]: 0 n (%)
Best overall response: Partial response [2, 10]: 0 n (%)
Best overall response: Progressive disease [2, 10]: 8 (47) n (%)
Best overall response: Stable disease [2, 10]: 9 (53) n (%)
Objective response rate [2, 10]: 0 n (%)
Best overall response: Complete response [2, 11]: 0 n (%)
Best overall response: Partial response [2, 11]: 10 (15) n (%)
Best overall response: Progressive disease [2, 11]: 37 (54) n (%)
Best overall response: Stable disease [2, 11]: 21 (31) n (%)
Objective response rate [2, 11]: 10 (15) n (%)
Best overall response: Complete response ([2]; dose expansion, QW n=17): 0 n (%)
Best overall response: Partial response ([2]; dose expansion, QW n=17): 0 n (%)
Best overall response: Progressive disease ([2]; dose expansion, QW n=17): 8 (47) n (%)
Best overall response: Stable disease ([2]; dose expansion, QW n=17): 9 (53) n (%)
Objective response rate ([2]; dose expansion, QW n=17): 0 n (%)
Best overall response: Complete response ([2]; dose expansion, Total n=85): 0 n (%)
Best overall response: Partial response ([2]; dose expansion, Total n=85): 10 (12) n (%)
Best overall response: Progressive disease ([2]; dose expansion, Total n=85): 45 (53) n (%)
Best overall response: Stable disease ([2]; dose expansion, Total n=85): 30 (35) n (%)
Objective response rate ([2]; dose expansion, Total n=85): 10 (12) n (%)
median percentage decrease in pERK staining, day 21 vs baseline (pERK; H-score by a pathologist, BRAF mutation-positive previously treated cohort): ≥ 70%
median percentage decrease in pERK staining, day 21 vs baseline (pERK; H-score by a pathologist, BRAF mutation-positive treatment-naïve cohort): ≥ 70%
median percentage decrease in pERK staining, day 21 vs baseline (pERK; H-score by a pathologist, NRAS mutation-positive treatment-naïve cohort): ≥ 70%
median percentage decrease in pERK expression, day 21 vs baseline (pERK; H-score by a pathologist): 12%
median percentage decrease in pERK staining, day 21 vs baseline (pERK; quantitated image analysis, BRAF mutation-positive previously treated cohort): ≥ 70%
median percentage decrease in pERK staining, day 21 vs baseline (pERK; quantitated image analysis, NRAS mutation-positive treatment-naïve cohort): ≥ 70%
median percentage decrease in pERK expression, day 21 vs baseline (pERK; quantitated image analysis): 8%
IC50 (wild-type BRAF): 0.0101 µM
treatment time until complete response was reported ([3]; single patient IND after the study): 7 months
duration for which complete response has been sustained ([3]; single patient IND, continued treatment): 8 years
